# Test results: the CombiSolv-Exp solvation set (Vermeire and Green 2021)
# Experiment: solvent given as SMILES
# [1] = in CCCCCCCCC=CCCCCCCCC(=O)OCC(COC(=O)CCCCCCCC=CCCCCCCCC)OC(=O)CCCCCCCC=CCCCCCCCC
compound,measurement,setting,value
CCCCC#N,"solvation free energy, 298 K",in CCCCCC,-4.45 kcal/mol
same,"solvation free energy, 298 K",in CCCCCCCCCCCCCCCC,-4.01 kcal/mol
same,"solvation free energy, 298 K",in CCCCCCCCO,-4.89 kcal/mol
same,"solvation free energy, 298 K",in O,-3.49 kcal/mol
same,"solvation free energy, 298 K",in [2H]O[2H],-3.42 kcal/mol
O=C(O)CCC(=O)O,"solvation free energy, 298 K",in CC(C)O,-12.3 kcal/mol
same,"solvation free energy, 298 K",in CCCO,-12.2 kcal/mol
same,"solvation free energy, 298 K",in CCO,-12.6 kcal/mol
same,"solvation free energy, 298 K",in O,-12.6 kcal/mol
same,"solvation free energy, 298 K",in O=C1CCCCC1,-11.7 kcal/mol
Clc1cc(Cl)c(-c2cc(Cl)c(Cl)c(Cl)c2Cl)cc1Cl,"solvation free energy, 298 K",in CCCCCCCCO,-13.9 kcal/mol
same,"solvation free energy, 298 K",in O,-3.53 kcal/mol
CS(C)(=O)=O,"solvation free energy, 298 K",in O,-10.1 kcal/mol
Clc1cc(Cl)c(-c2ccc(Cl)c(Cl)c2Cl)cc1Cl,"solvation free energy, 298 K",in CCCCCCCCO,-13.2 kcal/mol
same,"solvation free energy, 298 K",in O,-3.34 kcal/mol
CC(C)S,"solvation free energy, 298 K",in O,-0.7 kcal/mol
CCCCCCCCCCCCCCCCCCCC,"solvation free energy, 298 K",in CC(=O)N(C)C,-13.6 kcal/mol
same,"solvation free energy, 298 K",in CC(C)(C)O,-12.4 kcal/mol
same,"solvation free energy, 298 K",in CCC(C)=O,-12.6 kcal/mol
same,"solvation free energy, 298 K",[1],-12.5 kcal/mol
same,"solvation free energy, 298 K",in CCCCOC(C)=O,-12.9 kcal/mol
same,"solvation free energy, 298 K",in CCO,-11.4 kcal/mol
same,"solvation free energy, 298 K",in CN(C)C=O,-13.6 kcal/mol
same,"solvation free energy, 298 K",in COC(C)(C)C,-13.5 kcal/mol
same,"solvation free energy, 298 K",in O,4.52 kcal/mol
c1ccc2c(c1)OCCOCCOc1ccccc1OCCOCCO2,"solvation free energy, 298 K",in Cc1cccc(C)c1,-21.7 kcal/mol
same,"solvation free energy, 298 K",in O,-18.2 kcal/mol
Cc1ccc(C=O)cc1,"solvation free energy, 298 K",in O,-4.27 kcal/mol
Oc1ccccc1I,"solvation free energy, 298 K",in O,-6.21 kcal/mol
CC(=O)C(C)=O,"solvation free energy, 298 K",in O,-4.3 kcal/mol
C=CC(C)(CCC=C(C)C)OC=O (stereo not given),"solvation free energy, 298 K",in O,-3.6 kcal/mol
CCCNCc1ccc(C)cc1,"solvation free energy, 298 K",in O,-5.73 kcal/mol
Clc1ccc(-c2ccccc2)cc1,"solvation free energy, 298 K",[1],-9.7 kcal/mol
same,"solvation free energy, 298 K",in CCCCCCCCO,-9.25 kcal/mol
same,"solvation free energy, 298 K",in O,-2.44 kcal/mol
Clc1cc(-c2cc(Cl)c(Cl)c(Cl)c2)cc(Cl)c1Cl,"solvation free energy, 298 K",in O,-4.11 kcal/mol
O=C(c1ccccc1)N(O)c1ccccc1,"solvation free energy, 298 K",in O,-11.3 kcal/mol
O=[N+]([O-])c1cccc(CO)c1,"solvation free energy, 298 K",in O,-9.19 kcal/mol
CNC1CCCCC1,"solvation free energy, 298 K",in C1CCCCC1,-6.05 kcal/mol
CNc1ccccc1,"solvation free energy, 298 K",in CCCCCCCCCCCCCCCC,-6.06 kcal/mol
same,"solvation free energy, 298 K",in O,-4.69 kcal/mol
Cc1c(C)c(C)c(C)c(C)c1C,"solvation free energy, 298 K",in CCCCCCCCO,-8.61 kcal/mol
same,"solvation free energy, 298 K",in O,-1.95 kcal/mol
Brc1ccc(Br)cc1,"solvation free energy, 298 K",in CC(C)(C)O,-6.86 kcal/mol
same,"solvation free energy, 298 K",in CC(C)CCO,-7.01 kcal/mol
same,"solvation free energy, 298 K",in CC(C)CO,-6.92 kcal/mol
same,"solvation free energy, 298 K",in CCC(C)O,-6.94 kcal/mol
same,"solvation free energy, 298 K",in CCCC(C)O,-6.98 kcal/mol
same,"solvation free energy, 298 K",in CCCCCC,-7.25 kcal/mol
same,"solvation free energy, 298 K",in CCCCCCC,-7.55 kcal/mol
same,"solvation free energy, 298 K",[1],-7.01 kcal/mol
same,"solvation free energy, 298 K",in CCCCCCCCO,-7.11 kcal/mol
same,"solvation free energy, 298 K",in CCCCOCCCC,-7.74 kcal/mol
same,"solvation free energy, 298 K",in CCOCC,-8.21 kcal/mol
same,"solvation free energy, 298 K",in COC(C)(C)C,-7.73 kcal/mol
same,"solvation free energy, 298 K",in ClC(Cl)(Cl)Cl,-7.9 kcal/mol
CC(C)CBr,"solvation free energy, 298 K",in C=CCCCCCCCCCCCCCC,-3.98 kcal/mol
same,"solvation free energy, 298 K",in O,-0.03 kcal/mol
N#CCc1ccccc1,"solvation free energy, 298 K",in CCCCCCCCCCCCCCCC,-6.06 kcal/mol
same,"solvation free energy, 298 K",in O,-5.05 kcal/mol
CCC(C)CCO (stereo not given),"solvation free energy, 298 K",in CCCCCCCC,-4.82 kcal/mol
same,"solvation free energy, 298 K",in CCCCCCCCCC,-4.79 kcal/mol
c1cc2ccc3cccc4ccc(c1)c2c34,"solvation free energy, 298 K",in Brc1ccccc1,-13.2 kcal/mol
same,"solvation free energy, 298 K",in C1CCOC1,-13.4 kcal/mol
same,"solvation free energy, 298 K",in C1COCCO1,-13 kcal/mol
same,"solvation free energy, 298 K",in CC(=O)N(C)C,-13.3 kcal/mol
same,"solvation free energy, 298 K",in CC(C)(C)O,-11.2 kcal/mol
same,"solvation free energy, 298 K",in CC(C)=O,-12.7 kcal/mol
same,"solvation free energy, 298 K",in CC(C)CC(C)(C)C,-11.3 kcal/mol
same,"solvation free energy, 298 K",in CC(C)CC(C)O,-11.4 kcal/mol
same,"solvation free energy, 298 K",in CC(C)CCO,-11.4 kcal/mol
same,"solvation free energy, 298 K",in CC(C)CO,-11.2 kcal/mol
same,"solvation free energy, 298 K",in CC(C)O,-11.5 kcal/mol
same,"solvation free energy, 298 K",in CC(C)OC(C)C,-12 kcal/mol
same,"solvation free energy, 298 K",in CC(O)COC(C)(C)C,-12.3 kcal/mol
same,"solvation free energy, 298 K",in CCC(C)(C)O,-11.5 kcal/mol
same,"solvation free energy, 298 K",in CCC(C)=O,-13 kcal/mol
same,"solvation free energy, 298 K",in CCC(C)O,-11.3 kcal/mol
same,"solvation free energy, 298 K",in CCCC(=O)OC,-12.7 kcal/mol
same,"solvation free energy, 298 K",in CCCC(C)CO,-11.5 kcal/mol
same,"solvation free energy, 298 K",in CCCC(C)O,-11.5 kcal/mol
same,"solvation free energy, 298 K",in CCCCC(CC)CO,-11.7 kcal/mol
same,"solvation free energy, 298 K",in CCCCCC,-11.5 kcal/mol
same,"solvation free energy, 298 K",in CCCCCCC,-11.6 kcal/mol
same,"solvation free energy, 298 K",in CCCCCCCC,-11.7 kcal/mol
same,"solvation free energy, 298 K",[1],-12.3 kcal/mol
same,"solvation free energy, 298 K",in CCCCCCCCCC,-11.8 kcal/mol
same,"solvation free energy, 298 K",in CCCCCCCCO,-11.9 kcal/mol
same,"solvation free energy, 298 K",in CCCCCCCO,-11.8 kcal/mol
same,"solvation free energy, 298 K",in CCCCCCO,-11.8 kcal/mol
same,"solvation free energy, 298 K",in CCCCCO,-11.7 kcal/mol
same,"solvation free energy, 298 K",in CCCCCOC(C)=O,-12.7 kcal/mol
same,"solvation free energy, 298 K",in CCCCCl,-12.8 kcal/mol
same,"solvation free energy, 298 K",in CCCCO,-11.6 kcal/mol
same,"solvation free energy, 298 K",in CCCCOC(C)=O,-12.7 kcal/mol
same,"solvation free energy, 298 K",in CCCCOCCCC,-12.1 kcal/mol
same,"solvation free energy, 298 K",in CCCCOCCO,-12.4 kcal/mol
same,"solvation free energy, 298 K",in CCCO,-11.5 kcal/mol
same,"solvation free energy, 298 K",in CCCOCCO,-12.4 kcal/mol
same,"solvation free energy, 298 K",in CCO,-11.6 kcal/mol
same,"solvation free energy, 298 K",in CCOC(C)=O,-12.7 kcal/mol
same,"solvation free energy, 298 K",in CCOCC,-12.4 kcal/mol
same,"solvation free energy, 298 K",in CCOCCO,-12.5 kcal/mol
same,"solvation free energy, 298 K",in CN(C)C=O,-13.2 kcal/mol
same,"solvation free energy, 298 K",in CNC=O,-11.8 kcal/mol
same,"solvation free energy, 298 K",in CO,-11.2 kcal/mol
same,"solvation free energy, 298 K",in COC(C)(C)C,-12.2 kcal/mol
same,"solvation free energy, 298 K",in COC(C)=O,-12.6 kcal/mol
same,"solvation free energy, 298 K",in COC(C)CCO,-12.3 kcal/mol
same,"solvation free energy, 298 K",in COCCO,-12.2 kcal/mol
same,"solvation free energy, 298 K",in Cc1ccc(C)cc1,-12.8 kcal/mol
same,"solvation free energy, 298 K",in Cc1cccc(C)c1,-12.8 kcal/mol
same,"solvation free energy, 298 K",in Cc1ccccc1C,-12.9 kcal/mol
same,"solvation free energy, 298 K",in ClC(Cl)(Cl)Cl,-12.7 kcal/mol
same,"solvation free energy, 298 K",in ClC(Cl)Cl,-13.2 kcal/mol
same,"solvation free energy, 298 K",in ClCCCl,-13.2 kcal/mol
same,"solvation free energy, 298 K",in Fc1ccccc1,-12.9 kcal/mol
same,"solvation free energy, 298 K",in N#Cc1ccccc1,-13.1 kcal/mol
same,"solvation free energy, 298 K",in O,-4.77 kcal/mol
same,"solvation free energy, 298 K",in O=C1CCCCC1,-13.2 kcal/mol
